Data: publication PMC12479633, “A Phase IIa, Single-Blind, Placebo-Controlled, Parallel-Group Study to Assess Safety, Tolerability, and Pharmacokinetics/Pharmacodynamics of Brensocatib in Adults with Cystic Fibrosis” (Clinical Pharmacokinetics, 2025)
Read-outs that look alike come from different tables or passages of the source. Marks after values point to notes of the source that are not given here.

Tests used:
CYP3A = system: CYP3A; set-up: method as in PMID 35411669; details: cited from earlier work
[1] = set-up: method as in PMID 40267423; details: NCFBE, ASPEN, cited from earlier work
[2] = Plasma pharmacokinetics of brensocatib in adults with CF, once-daily oral dosing for 28 days (noncompartmental analysis); format: in vivo, human; details: for AUC0–24 / D, geometric mean / AUClast / D, geometric mean / Cmax / D, geometric mean: dose-normalized
Experimental: This was a phase IIa, single-blind, randomized, placebo-controlled trial with a parallel-group, multiple-dose design aimed at evaluating the PK, PD, safety, and tolerability of brensocatib in adults with CF (NCT05090904).
Participants were assigned to receive a once-daily dose of brensocatib (10 mg, 25 mg, or 40 mg) or placebo for 28 days.
Plasma PK samples were collected on days 1 (at predose and 0.5, 1, 2, 4, 6, 8, and 24 h postdose), 14 (at predose and 2 h postdose), and 28 (at predose and 0.5, 1, 2, 4, 6, 8, 24, and 168 h postdose). The concentration of brensocatib in the plasma samples was analyzed using a validated liquid chromatography with tandem mass spectrometry method at an external service provider with a quantification range of 0.25–150 ng/mL. The overall intra- and inter-batch precision and accuracy were −2.7 to 2.0% and −1.8 to 0.8%, respectively. The long-term stability was established in human plasma for 346 days at −70 °C. The validation method details were published internally and stored within Insmed’s internal document repository.
Descriptive statistics for continuous variables were calculated. Categorical variables were summarized by counts and by percentage of participants in the corresponding categories. No formal hypothesis was tested. Changes from baseline values were calculated and presented for both safety and efficacy data at each visit, including the percent change from baseline. PK parameters for brensocatib were assessed using noncompartmental analysis via Phoenix® WinNonlin® version 8.2 or later. SAS version 9.4 or higher was employed to prepare PK outputs.
Analysis of dose dependency for brensocatib Cmax, AUC0–24, and area under the concentration–time curve from time 0 to last measurable concentration (AUClast) after single-dose administration and at steady state (day 28) were performed using a power law model. Dose normalization of Cmax, AUC0–24, and AUClast was performed only when a linear and dose-dependent trend was observed.

[3] = 10 mg QD, Day 28, n = 8, mean (CV%)
[4] = 25 mg QD, Day 28, n = 7, mean (CV%)
[5] = 40 mg QD, Day 28, n = 8, mean (CV%)
[6] = 40-mg dose compared to 10 mg, day 28
[7] = 40-mg dose compared to 25 mg, day 28
[8] = Day 1, with CFTR modulator, n 17
[9] = Day 1, without CFTR modulator, n 7
[10] = Day 28, with CFTR modulator, n 16
[11] = Day 28, without CFTR modulator, n 6
[12] = human, plasma, oral, 10 mg QD, Day 28, n = 8, mean (CV%)
[13] = human, plasma, oral, 25 mg QD, Day 28, n = 7, mean (CV%)
[14] = human, plasma, oral, 40 mg QD, Day 28, n = 8, mean (CV%)

Ctrough ([2]; 10 mg QD, Day 1 column, presented for day 2, n = 8, mean (CV%)): 46.3 (92.2) ng/mL | CL/F [2, 3]: 9.91 (28.6) L/h | Cmax [2, 3]: 90.1 (31.0) ng/mL | Ctrough [2, 3]: 27.2 (66.1) ng/mL | Rac(AUC0–24), accumulation ratio based on AUC0–24 [2, 3]: 1.38 (32.2) | Rac(Cmax), accumulation ratio based on Cmax [2, 3]: 1.42 (22.6) | Cmax ([2]; 25 mg QD, Day 1, n = 8, mean (CV%)): 140 (24.1) ng/mL | Ctrough ([2]; 25 mg QD, Day 1 column, presented for day 2, n = 8, mean (CV%)): 39.3 (30.4) ng/mL | CL/F [2, 4]: 7.17 (30.1) L/h | Rac(AUC0–24), accumulation ratio based on AUC0–24 [2, 4]: 2.26 (29.2) | Rac(Cmax), accumulation ratio based on Cmax [2, 4]: 1.72 (38.9) | Ctrough ([2]; 25 mg QD, Day 28, n = 8, mean (CV%)): 104 (43.6)^d ng/mL | Ctrough ([2]; 40 mg QD, Day 1 column, presented for day 2, n = 8, mean (CV%)): 108 (88.6) ng/mL | CL/F [2, 5]: 7.20 (42.8) L/h | Ctrough [2, 5]: 162 (41.8) ng/mL | Rac(AUC0–24), accumulation ratio based on AUC0–24 [2, 5]: 1.81 (37.4) | Rac(Cmax), accumulation ratio based on Cmax [2, 5]: 1.43 (25.5) | least squares geometric mean ratio (LSGMR) in AUC0–24 (90% CI) [2, 6]: 1.42 (1.04–1.92) | least squares geometric mean ratio (LSGMR) in Cmax (90% CI) [2, 6]: 1.36 (1.02–1.82) | least squares geometric mean ratio (LSGMR) in AUC0–24 (90% CI) [2, 7]: 1.02 (0.74–1.41) | least squares geometric mean ratio (LSGMR) in Cmax (90% CI) [2, 7]: 1.25 (0.92–1.69) | AUClast / D, ratio with/without CFTR modulator (90% CI) ([2]; Day 1, geometric mean ratio): 1.21 (0.91–1.60) | AUC0–24 / D, geometric mean [2, 8]: 80.7 ng·h/mL/mg | AUClast / D, geometric mean [2, 8]: 80.7 ng·h/mL/mg | Cmax / D, geometric mean [2, 8]: 6.7 ng/mL/mg | AUC0–24 / D, geometric mean [2, 9]: 66.8 ng·h/mL/mg | AUClast / D, geometric mean [2, 9]: 66.8 ng·h/mL/mg | Cmax / D, geometric mean [2, 9]: 6.3 ng/mL/mg | AUC0–24 / D, ratio with/without CFTR modulator (90% CI) ([2]; Day 28, geometric mean ratio): 1.12 (0.82–1.52) | AUC0–24 / D, geometric mean [2, 10]: 134.2 ng·h/mL/mg | AUClast / D, geometric mean [2, 10]: 295.1 ng·h/mL/mg | Cmax / D, geometric mean ([2]; Day 28, with CFTR modulator, n = 17): 10.2^a ng/mL/mg | AUC0–24 / D, geometric mean [2, 11]: 120.2 ng·h/mL/mg | AUClast / D, geometric mean [2, 11]: 271.3 ng·h/mL/mg | Cmax / D, geometric mean [2, 11]: 8.8 ng/mL/mg | inter-participant variability (coefficient of variation) in Cmax, AUC0–24 and t1/2 ([2]; generally within): 15–50% | AUC(0-t) ([2]; human, plasma, oral, 10 mg, 10 mg QD, Day 1, n = 8, mean (CV%), read-out: AUC0–24): 879 ng·h/mL | AUC(0-t) ([2]; human, plasma, oral, 10 mg, 10 mg QD, Day 1, n = 8, mean (CV%), read-out: AUClast): 879 ng·h/mL | Cmax ([2]; human, plasma, oral, 10 mg, 10 mg QD, Day 1, n = 8, mean (CV%), with/without CFTR modulators, read-out: Cmax): 67.3 ng/mL | AUC(0-t) ([2]; human, plasma, oral, 10 mg, 10 mg QD, Day 28, n = 8, mean (CV%), read-out: AUC0–24): 1100 ng·h/mL | AUC(0-t) ([2]; human, plasma, oral, 10 mg, 10 mg QD, Day 28, n = 8, mean (CV%), read-out: AUClast): 2380 ng·h/mL | AUC(0-t) ([2]; human, plasma, oral, 25 mg, 25 mg QD, Day 1, n = 8, mean (CV%), read-out: AUC0–24): 1630 ng·h/mL | AUC(0-t) ([2]; human, plasma, oral, 25 mg, 25 mg QD, Day 1, n = 8, mean (CV%), read-out: AUClast): 1630 ng·h/mL | AUC(0-t) ([2]; human, plasma, oral, 25 mg, 25 mg QD, Day 28, n = 7, mean (CV%), read-out: AUC0–24): 3800 ng·h/mL | AUC(0-t) ([2]; human, plasma, oral, 25 mg, 25 mg QD, Day 28, n = 7, mean (CV%), read-out: AUClast): 8930 ng·h/mL | Cmax ([2]; human, plasma, oral, 25 mg, 25 mg QD, Day 28, n = 7, mean (CV%), read-out: Cmax): 249 ng/mL | AUC(0-t) ([2]; human, plasma, oral, 40 mg, 40 mg QD, Day 1, n = 8, mean (CV%), read-out: AUC0–24): 3690 ng·h/mL | AUC(0-t) ([2]; human, plasma, oral, 40 mg, 40 mg QD, Day 1, n = 8, mean (CV%), read-out: AUClast): 3690 ng·h/mL | Cmax ([2]; human, plasma, oral, 40 mg, 40 mg QD, Day 1, n = 8, mean (CV%), read-out: Cmax): 342 ng/mL | AUC(0-t) ([2]; human, plasma, oral, 40 mg, 40 mg QD, Day 28, n = 8, mean (CV%), read-out: AUC0–24): 6320 ng·h/mL | AUC(0-t) ([2]; human, plasma, oral, 40 mg, 40 mg QD, Day 28, n = 8, mean (CV%), read-out: AUClast): 15300 ng·h/mL | Cmax ([2]; human, plasma, oral, 40 mg, 40 mg QD, Day 28, n = 8, mean (CV%), read-out: Cmax): 490 ng/mL | AUC(0-t) ([2]; human, plasma, oral, day 1, CFTR modulator stratum, 10-40 mg QD, read-out: mean AUC0–24 across brensocatib dose groups): 798 to 4120 ng·h/mL | AUC(0-t) ([2]; human, plasma, oral, day 1, CFTR modulator stratum, 10-40 mg QD, read-out: mean AUClast across brensocatib dose groups): 798 to 4120 ng·h/mL | Cmax ([2]; human, plasma, oral, day 1, CFTR modulator stratum, 10-40 mg QD, read-out: mean Cmax across brensocatib dose groups): 60.9 to 365 ng/mL | AUC(0-t) ([2]; human, plasma, oral, day 1, non-CFTR modulator stratum, 10-40 mg QD, read-out: mean AUC0–24 across brensocatib dose groups): 1120 to 2400 ng·h/mL | AUC(0-t) ([2]; human, plasma, oral, day 1, non-CFTR modulator stratum, 10-40 mg QD, read-out: mean AUClast across brensocatib dose groups): 1120 to 2400 ng·h/mL | Cmax ([2]; human, plasma, oral, day 1, non-CFTR modulator stratum, 10-40 mg QD, read-out: mean Cmax across brensocatib dose groups): 86.4 to 274 ng/mL | AUC(0-t) ([2]; human, plasma, oral, day 28, CFTR modulator stratum, 10-40 mg QD, read-out: mean AUC0–24 across brensocatib dose groups): 1080 to 7360 ng·h/mL | AUC(0-t) ([2]; human, plasma, oral, day 28, CFTR modulator stratum, 10-40 mg QD, read-out: mean AUClast across brensocatib dose groups): 2440 to 17700 ng·h/mL | Cmax ([2]; human, plasma, oral, day 28, CFTR modulator stratum, 10-40 mg QD, read-out: mean Cmax across brensocatib dose groups): 92 to 538 ng/mL | AUC(0-t) ([2]; human, plasma, oral, day 28, non-CFTR modulator stratum, 10-40 mg QD, read-out: mean AUC0–24 across brensocatib dose groups): 1190 to 3740 ng·h/mL | AUC(0-t) ([2]; human, plasma, oral, day 28, non-CFTR modulator stratum, 10-40 mg QD, read-out: mean AUClast across brensocatib dose groups): 2210 to 9540 ng·h/mL | Cmax ([2]; human, plasma, oral, day 28, non-CFTR modulator stratum, 10-40 mg QD, read-out: mean Cmax across brensocatib dose groups): 84.3 to 348 ng/mL | AUC(0-inf) [2, 12]: 2430 ng·h/mL | Vd/F [2, 12]: 423 L | half-life ([2]; human, plasma, oral, 10 mg QD, Day 28, n = 8, mean (CV%), read-out: t1/2 (converted)): 30 h | Tmax ([2]; human, plasma, oral, 10 mg QD, Day 28, n = 8, median (range), read-out: Tmax): 1.9 h | AUC(0-inf) [2, 13]: 9300 ng·h/mL | Vd/F [2, 13]: 332 L | half-life ([2]; human, plasma, oral, 25 mg QD, Day 28, n = 7, mean (CV%), read-out: t1/2 (converted)): 33.1 h | AUC(0-inf) [2, 14]: 16200 ng·h/mL | Vd/F [2, 14]: 398 L | half-life ([2]; human, plasma, oral, 40 mg QD, Day 28, n = 8, mean (CV%), read-out: t1/2 (converted)): 38.5 h | Tmax ([2]; human, plasma, oral, day 1 (after the first dose) and day 28 (steady state), across doses, read-out: median Tmax postdose): 1.5 to 2 h | half-life ([2]; human, plasma, oral, range over CFTR modulator and non-CFTR modulator strata, read-out: elimination t1/2): 24.7 to 49.5 h
SMILES: Cn1c(=O)oc2ccc(-c3ccc(C[C@@H](C#N)NC(=O)[C@@H]4CNCCCO4)cc3)cc21 [Brensocatib]
substrate status (CYP3A; CYP3A): substrate | inhibition or induction of CYP3A (CYP3A): not a clinically meaningful inhibitor or inducer | annualized rate of adjudicated pulmonary exacerbations compared with placebo ([1]; 10 mg or 25 mg QD): significantly reduced | lung function decline (FEV1) over 52 weeks compared with placebo ([1]; 25 mg): significantly lower
